Earlier results as cited in patent US20120164210A1, “PHOTODYNAMIC THERAPEUTIC AGENT HAVING CELL-SPECIFIC ACTIVE ACCUMULATION PROPERTIES” (The University of Tokyo, priority 2008, published 2012).

Tests used:
tumor tissue = conditions: in vivo
[1] = after administration, light shielding required

incorporation into tumor tissue relative to normal tissue (tumor tissue): about 4 times
sunlight hypersensitivity as a complication [1]: cause sunlight hypersensitivity
Substance: Photofrin
